Source: patent US12570662B2, “Substituted pyrrolo[1,2-b]pyridazines as bifunctional degraders of interleukin-1 receptor-associated kinases” (Nurix Therapeutics, Inc., priority 2021, dated 2026)

Biological target: T1, IRAK4 (Homo sapiens, UniProt Q9NWZ3)
T1 construct: C-terminal HiBiT-tagged Jurkat cells (polyclonal cell line or clone 8D5); endogenous in cells; host or cells: Jurkat cells (polyclonal cell line or clone 8D5), HiBiT-tagged
T1 sequence (Q9NWZ3 1-460): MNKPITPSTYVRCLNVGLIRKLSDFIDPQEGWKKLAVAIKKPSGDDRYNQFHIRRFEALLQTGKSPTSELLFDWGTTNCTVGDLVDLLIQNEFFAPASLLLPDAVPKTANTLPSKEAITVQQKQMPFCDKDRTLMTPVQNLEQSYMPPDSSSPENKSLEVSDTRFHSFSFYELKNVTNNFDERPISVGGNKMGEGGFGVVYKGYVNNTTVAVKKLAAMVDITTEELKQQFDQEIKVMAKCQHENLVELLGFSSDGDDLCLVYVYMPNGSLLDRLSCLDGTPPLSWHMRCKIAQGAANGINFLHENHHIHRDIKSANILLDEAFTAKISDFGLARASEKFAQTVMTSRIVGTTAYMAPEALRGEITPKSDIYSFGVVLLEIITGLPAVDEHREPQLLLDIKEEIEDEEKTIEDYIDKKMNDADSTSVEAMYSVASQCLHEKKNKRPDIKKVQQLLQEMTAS
Assay: IRAK4 Degradation HiBit Assay
Format: cell-based
Details: C-terminal HiBiT-tagged Jurkat cells, 4 hrs incubation; for DC50: % IRAK4 remaining, four-parameter fit (IC50 used as DC50); for Dmax: from fit of % IRAK4 remaining, read-out: Dmax
In short: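 Jurkat cells carrying C-terminal HiBiT-tagged IRAK4 (polyclonal or clone 8D5) exposed to compound, 10 μM–0.1 nM final over 11 points, for 4 h at 32 °C. Remaining IRAK4 measured by lytic HiBiT/LgBiT luminescence relative to DMSO. DC50 and Dmax taken from four-parameter variable-slope fits.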

Row | SMILES | DC50 [nM] | Dmax [%]
1 | N#Cc1cnn2c(-c3cc(NC4CCOCC4)c(-c4nnc(N5CCN(CC6CCN(c7ccc(N8CCC(=O)NC8=O)cn7)CC6)CC5)s4)cn3)ccc2c1 [Example 28, 7-(5-{5-[4-({1-[5-(2,4-dioxo-1,3-diazinan-1-yl)pyridin-2-yl]piperidin-4-yl}methyl)piperazin-1-yl]-1,3,4-thiadiazol-2-yl}-4-[(oxan-4-yl)amino]pyridin-2-yl)pyrrolo[1,2-b]pyridazine-3-carbonitrile] | 15 | 107
2 | N#Cc1cnn2c(-c3cc(NC4CCOCC4)c(-c4nnc(N5CCN(CC6CCN(c7ccc(N8CCC(=O)NC8=O)cc7)CC6)CC5)s4)cn3)ccc2c1 [Example 60, 7-(5-{5-[4-({1-[4-(2,4-dioxo-1,3-diazinan-1-yl)phenyl]piperidin-4-yl}methyl)piperazin-1-yl]-1,3,4-thiadiazol-2-yl}-4-[(oxan-4-yl)amino]pyridin-2-yl)pyrrolo[1,2-b]pyridazine-3-carbonitrile] | 16 | 86
3 | N#Cc1cnn2c(-c3cc(NC4CCOCC4)c(-c4nnc(N5CCN(CC6CCN(C(=O)c7ccc(F)c(N8CCC(=O)NC8=O)c7)CC6)CC5)s4)cn3)ccc2c1 [Example 62, 7-(5-{5-[4-({1-[3-(2,4-dioxo-1,3-diazinan-1-yl)-4-fluorobenzoyl]piperidin-4-yl}methyl)piperazin-1-yl]-1,3,4-thiadiazol-2-yl}-4-[(oxan-4-yl)amino]pyridin-2-yl)pyrrolo[1,2-b]pyridazine-3-carbonitrile] | 12 | 41
4 | N#Cc1cnn2c(-c3cc(NC4CCOCC4)c(-c4nnc(C56CCC(C(=O)N7CCc8cc(N9CCC(=O)NC9=O)ccc8C7)(CC5)CC6)s4)cn3)ccc2c1 [Example 63, 7-[5-(5-{4-[6-(2,4-dioxo-1,3-diazinan-1-yl)-1,2,3,4-tetrahydroisoquinoline-2-carbonyl]bicyclo[2.2.2]octan-1-yl}-1,3,4-thiadiazol-2-yl)-4-[(oxan-4-yl)amino]pyridin-2-yl]pyrrolo[1,2-b]pyridazine-3-carbonitrile] | 29 | 95
5 | CC(C)Nc1cc(-c2ccc3cc(C#N)cnn23)ncc1-c1nnc(N2CCN(CC3CCN(c4ccc(N5CCC(=O)NC5=O)cn4)CC3)CC2)s1 [Example 65, 7-(5-{5-[4-({1-[5-(2,4-dioxo-1,3-diazinan-1-yl)pyridin-2-yl]piperidin-4-yl}methyl)piperazin-1-yl]-1,3,4-thiadiazol-2-yl}-4-[(propan-2-yl)amino]pyridin-2-yl)pyrrolo[1,2-b]pyridazine-3-carbonitrile] | 43 | 110
6 | CCNc1cc(-c2ccc3cc(C#N)cnn23)ncc1-c1nnc(N2CCN(CC3CCN(c4ccc(N5CCC(=O)NC5=O)cn4)CC3)CC2)s1 [Example 71, 7-(5-{5-[4-({1-[5-(2,4-dioxo-1,3-diazinan-1-yl)pyridin-2-yl]piperidin-4-yl}methyl)piperazin-1-yl]-1,3,4-thiadiazol-2-yl}-4-(ethylamino)pyridin-2-yl)pyrrolo[1,2-b]pyridazine-3-carbonitrile] | 6 | 110
7 | CC(C)Nc1cc(-c2ccc3cc(C#N)cnn23)ncc1-c1nnc(N2CC3CCC(C2)N3CC2CCN(c3ccc(N4CCC(=O)NC4=O)cn3)CC2)s1 [Example 73, 7-(5-{5-[8-({1-[5-(2,4-dioxo-1,3-diazinan-1-yl)pyridin-2-yl]piperidin-4-yl}methyl)-3,8-diazabicyclo[3.2.1]octan-3-yl]-1,3,4-thiadiazol-2-yl}-4-[(propan-2-yl)amino]pyridin-2-yl)pyrrolo[1,2-b]pyridazine-3-carbonitrile] | 29 | 105
8 | N#Cc1cnn2c(-c3cc(NC4CC4)c(-c4nnc(N5CCN(CC6CCN(c7ccc(N8CCC(=O)NC8=O)cn7)CC6)CC5)s4)cn3)ccc2c1 [Example 78, 7-[4-(cyclopropylamino)-5-{5-[4-({1-[5-(2,4-dioxo-1,3-diazinan-1-yl)pyridin-2-yl]piperidin-4-yl}methyl)piperazin-1-yl]-1,3,4-thiadiazol-2-yl}pyridin-2-yl]pyrrolo[1,2-b]pyridazine-3-carbonitrile] | 19 | 111
9 | CC1(Nc2cc(-c3ccc4cc(C#N)cnn34)ncc2-c2nnc(N3CCN(CC4CCN(c5ccc(N6CCC(=O)NC6=O)cn5)CC4)CC3)s2)COC1 [Example 80, 7-(5-{5-[4-({1-[5-(2,4-dioxo-1,3-diazinan-1-yl)pyridin-2-yl]piperidin-4-yl}methyl)piperazin-1-yl]-1,3,4-thiadiazol-2-yl}-4-[(3-methyloxetan-3-yl)amino]pyridin-2-yl)pyrrolo[1,2-b]pyridazine-3-carbonitrile] | 84 | 90
10 | N#Cc1cnn2c(-c3cc(NC4CC4)c(-c4nnc(N5CCN(CC6CCN(c7ccc(N8CCC(=O)NC8=O)cc7)CC6)CC5)s4)cn3)ccc2c1 [Example 83, 7-[4-(cyclopropylamino)-5-{5-[4-({1-[4-(2,4-dioxo-1,3-diazinan-1-yl)phenyl]piperidin-4-yl}methyl)piperazin-1-yl]-1,3,4-thiadiazol-2-yl}pyridin-2-yl]pyrrolo[1,2-b]pyridazine-3-carbonitrile] | 52 | 80
11 | N#Cc1cnn2c(-c3cc(NC4CCOCC4)c(-c4nnc(N5CC6CCC(C5)N6CC5CCN(c6ccc(N7CCC(=O)NC7=O)cc6)CC5)s4)cn3)ccc2c1 [Example 84, 7-(5-{5-[8-({1-[4-(2,4-dioxo-1,3-diazinan-1-yl)phenyl]piperidin-4-yl}methyl)-3,8-diazabicyclo[3.2.1]octan-3-yl]-1,3,4-thiadiazol-2-yl}-4-[(oxan-4-yl)amino]pyridin-2-yl)pyrrolo[1,2-b]pyridazine-3-carbonitrile] | 24 | 77
12 | N#Cc1cnn2c(-c3cc(NC4CCOCC4)c(-c4nnc(N5CC6CCC(C5)N6CC5CCN(c6ccc(N7CCC(=O)NC7=O)cn6)CC5)s4)cn3)ccc2c1 [Example 86, 7-(5-{5-[8-({1-[5-(2,4-dioxo-1,3-diazinan-1-yl)pyridin-2-yl]piperidin-4-yl}methyl)-3,8-diazabicyclo[3.2.1]octan-3-yl]-1,3,4-thiadiazol-2-yl}-4-[(oxan-4-yl)amino]pyridin-2-yl)pyrrolo[1,2-b]pyridazine-3-carbonitrile] | 12 | 111
13 | N#Cc1cnn2c(-c3cc(NC4CC4)c(-c4nnc(N5CC6CCC(C5)N6CC5CCN(c6ccc(N7CCC(=O)NC7=O)cn6)CC5)s4)cn3)ccc2c1 [Example 115, 7-[4-(cyclopropylamino)-5-{5-[8-({1-[5-(2,4-dioxo-1,3-diazinan-1-yl)pyridin-2-yl]piperidin-4-yl}methyl)-3,8-diazabicyclo[3.2.1]octan-3-yl]-1,3,4-thiadiazol-2-yl}pyridin-2-yl]pyrrolo[1,2-b]pyridazine-3-carbonitrile] | 48 | 109
